Assay results: US20120232070A1, “Use of Indole Derivatives as Nurr-1 Activators for the Application Thereof as a Medicament for the Treatment of Parkinson's Disease” (Laboratoires Fournier SA, priority 2009, published 2012)

Tests used:
[1] = molecular target: hNurr1_RXRγFL (NURR1/RXRγ heterodimer) (Homo sapiens, UniProt P43354+P48443); test: Transactivation assay in Cos-7 cells, NURR-1-Gal4 / RXRγ, luciferase reporter; type: cell-based; conditions: for Emax: COS-7, read-out: hNurr1_RXRγFL Eff (%), efficacy in % relative to the reference XCT0135908 at 2·10^−5 M (=100%); for EC50: Cos-7 cells, overnight incubation
Procedure: (§1) First, the capacity of the compounds according to the invention for acting as an activator of the heterodimers formed by the NURR-1 nuclear receptor and the RXR nuclear receptors was measured by an in vitro assay.
(§2) A transactivation assay was used as a primary screening assay. Cos-7 cells were co-transfected with a plasmid expressing a chimera of the human receptor NURR-1-Gal4, a plasmid expressing the human receptor RXR (RXRα or RXRγ receptor) and a reporter plasmid 5Gal4pGL3-TK-Luc. The transfections were performed by means of a chemical agent (Jet PEI).
(§3) The transfected cells were distributed in 384-well plates and left resting for 24 hours.
(§4) After 24 hours, the culture medium was changed. The products according to the invention were added (final concentration between 10^−4 and 3·10^−10 M) to the culture medium. After overnight incubation, luciferase expression was measured after addition of “SteadyGlo” according to the manufacturer's instructions (Promega).
(§5) 4-[[6-Methyl-2-phenyl-5-(2-prop enyl)-4-pyrimidinyl]amino]-benzoic acid (called XCT0135908, which was described in the article by Wallen-Mackenzie et al. published in Genes & Development 17, pages 3036-3047) at 2·10^−5 M (RXR agonist) was used as reference.
(§6) The levels of induction (designated by “efficiency”) were calculated relative to the baseline activity of each heterodimer. The results were expressed as a percentage of the level of induction relative to the level of induction obtained with the reference (the level of induction of the reference is arbitrarily taken to be 100%).

[2] = molecular target: hNurr1_RXRαFL (NURR1/RXRα heterodimer) (Homo sapiens, UniProt P19793+P43354); test: Transactivation assay in Cos-7 cells, NURR-1-Gal4 / RXRα, luciferase reporter; type: cell-based; conditions: for Emax: COS-7, read-out: hNurr1_RXRαFL Eff (%), efficacy in % relative to the reference XCT0135908 at 2·10^−5 M (=100%); for EC50: Cos-7 cells, overnight incubation
Procedure: as §1, §2, §3, §4, §5, §6

hNurr1_RXRαFL (NURR1/RXRα heterodimer), sequence (P19793 whole entry, the tested form may be a part): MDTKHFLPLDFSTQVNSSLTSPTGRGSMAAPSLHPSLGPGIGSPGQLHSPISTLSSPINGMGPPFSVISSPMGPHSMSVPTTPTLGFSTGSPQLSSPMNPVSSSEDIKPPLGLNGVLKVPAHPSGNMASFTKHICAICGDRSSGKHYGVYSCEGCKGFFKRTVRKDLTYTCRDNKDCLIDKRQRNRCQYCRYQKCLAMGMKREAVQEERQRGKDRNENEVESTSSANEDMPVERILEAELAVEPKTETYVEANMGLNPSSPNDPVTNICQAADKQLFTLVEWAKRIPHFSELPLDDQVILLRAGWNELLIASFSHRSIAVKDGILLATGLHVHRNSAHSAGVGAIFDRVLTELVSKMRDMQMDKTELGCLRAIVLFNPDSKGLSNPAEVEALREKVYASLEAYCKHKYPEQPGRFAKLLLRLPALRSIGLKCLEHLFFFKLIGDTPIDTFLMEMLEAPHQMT
hNurr1_RXRαFL (NURR1/RXRα heterodimer), sequence (P43354 328-598): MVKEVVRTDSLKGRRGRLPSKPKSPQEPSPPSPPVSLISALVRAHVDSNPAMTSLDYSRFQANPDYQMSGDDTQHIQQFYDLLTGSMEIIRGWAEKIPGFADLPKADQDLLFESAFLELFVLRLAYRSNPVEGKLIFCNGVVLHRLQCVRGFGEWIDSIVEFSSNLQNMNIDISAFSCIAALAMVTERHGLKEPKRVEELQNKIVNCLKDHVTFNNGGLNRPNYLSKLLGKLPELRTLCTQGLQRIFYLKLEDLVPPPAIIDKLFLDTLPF
hNurr1_RXRγFL (NURR1/RXRγ heterodimer), sequence (P43354 328-598): as above
hNurr1_RXRγFL (NURR1/RXRγ heterodimer), sequence (P48443 whole entry, the tested form may be a part): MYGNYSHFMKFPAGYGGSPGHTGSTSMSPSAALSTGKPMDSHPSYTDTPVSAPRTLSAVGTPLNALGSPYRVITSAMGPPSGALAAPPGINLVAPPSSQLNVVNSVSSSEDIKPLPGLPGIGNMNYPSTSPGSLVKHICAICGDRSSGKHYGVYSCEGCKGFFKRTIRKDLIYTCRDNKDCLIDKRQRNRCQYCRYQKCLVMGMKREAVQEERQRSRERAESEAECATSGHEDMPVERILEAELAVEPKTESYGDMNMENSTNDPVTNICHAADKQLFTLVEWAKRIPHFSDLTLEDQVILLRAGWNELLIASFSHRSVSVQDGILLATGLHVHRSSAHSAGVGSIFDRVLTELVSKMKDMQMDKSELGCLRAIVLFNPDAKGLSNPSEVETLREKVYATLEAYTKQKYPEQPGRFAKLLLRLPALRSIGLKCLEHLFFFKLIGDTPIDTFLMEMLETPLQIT

Row | Compound | Emax [1] | EC50 [1] | Emax [2] | EC50 [2]
1 | Cc1ccc2c(c1)cc(Cc1ccc(C(=O)O)cc1)n2S(=O)(=O)c1cccc(C(C)(C)C)c1 [Example 118, 4-[[1-[[3-(1,1-dimethylethyl)phenyl]sulfonyl]-5-(methyl)-1H-indol-2-yl]methyl]benzoic acid] | 65% | 473 nM | 75% | 279 nM
2 | O=C(O)c1ccc(Cc2cc3cc(C(F)(F)F)ccc3n2S(=O)(=O)c2ccc(-c3ccccc3)s2)cc1 [Example 14, 4-[[1-[(5-phenyl-2-thienyl)sulfonyl]-5-(trifluoromethyl)-1H-indol-2-yl]methyl]benzoic acid] | 30% | 778 nM | 69% | 396 nM
3 | O=C(O)c1ccc(Cc2cc3cc(Cl)ccc3n2S(=O)(=O)c2ccc(F)c(Cl)c2)cc1 [Example 150, 4-[[1-[3-chloro-4-fluoro-phenylsulfonyl]-5-(chloro)-1H-indol-2-yl]methyl]benzoic acid] | 96% | 501 nM | 103% | 299 nM
4 | COc1cccc(S(=O)(=O)n2c(Cc3ccc(C(=O)O)cc3)cc3cc(C(F)(F)F)ccc32)c1 [Example 13, 4-[[1-[(3-methoxyphenyl)sulfonyl]-5-(trifluoromethyl)-1H-indol-2-yl]methyl]benzoic acid] | 36% | 528 nM | 69% | 207 nM
5 | COC(=O)c1ccc(Cc2cc3cccc(F)c3n2S(=O)(=O)c2cccc(C(C)(C)C)c2)cc1 [Example 113, 4-[[1-[[3-(1,1-dimethylethyl)phenyl]sulfonyl]-7-fluoro-1H-indol-2-yl]methyl]benzoic acid, methyl ester] | 97% | 1860 nM | 103% | > 10000 nM
6 | Cn1ccc(-c2cccc(S(=O)(=O)n3c(Cc4ccc(C(=O)O)cc4)cc4cc(C(F)(F)F)ccc43)c2)n1 [Example 18, 4-[[1-[[3-(1-methyl-1H-pyrazol-3-yl)phenyl]sulfonyl]-5-(trifluoromethyl)-1H-indol-2-yl]methyl]benzoic acid] | 34% | 668 nM | 60% | 407 nM
7 | CC(C)(C)c1cccc(S(=O)(=O)n2c(Cc3ccc(C(=O)O)cn3)cc3cc(C(F)(F)F)ccc32)c1 [Example 66] | 79% | 110 nM | 80% | 71 nM
8 | COc1cc(Cc2cc3cc(Cl)ccc3n2S(=O)(=O)c2ccc(C(C)C)cc2)ccc1C(=O)O [Example 98, 4-[[5-chloro-1-[[4-(1-methylethyl)phenyl]sulfonyl]-1H-indol-2-yl]methyl]-2-methoxybenzoic acid] | 8% | > 10000 nM | 64% | 2120 nM
9 | O=C(O)c1ccc(Cc2cc3cc(C(F)(F)F)ccc3n2S(=O)(=O)c2ccc3c(c2)OCCO3)cc1 [Example 22, 4-[[1-[(2,3-dihydro-1,4-benzodioxin-6-yl)sulfonyl]-5-(trifluoromethyl)-1H-indol-2-yl]methyl]benzoic acid] | 43% | 346 nM | 45% | 207 nM
10 | COC(=O)c1ccc(Cc2cc3ccccc3n2S(=O)(=O)c2cccc(C(C)(C)C)c2)cc1 [Example 194, 4-[[1-[[3-(1,1-dimethylethyl)phenyl]sulfonyl]-1H-indol-2-yl]methyl]-benzoic acid, methyl ester] | 36% | 316 nM | 42% | 344 nM
11 | CC(C)(C)c1ccc(S(=O)(=O)n2c(Cc3ccc(C(=O)O)cc3)cc3cc(Cl)ccc32)cc1 [Example 155, 4-[[1-[4-tert-butyl-phenylsulfonyl]-5-(chloro)-1H-indol-2-yl]methyl]benzoic acid] | 59% | 468 nM | 69% | 262 nM
12 | Cc1c(Cc2nc(C(=O)O)cs2)n(S(=O)(=O)c2cccc(C(C)(C)C)c2)c2ccc(C(F)(F)F)cc12 [Example 86, 2-[[1-[[3-(1,1-dimethylethyl)-phenyl]sulfonyl]-3-methyl-5-(trifluoro-methyl)-1H-indol-2-yl]methyl]-thiazole-4-carboxylic acid] | 34% | 1480 nM | 56% | 490 nM
13 | O=C(O)c1ccc(Cc2cc3cc(C(F)(F)F)ccc3n2S(=O)(=O)c2ccc(N3CCOCC3)nc2)cc1 [Example 135, 4-[[1-[[6-(4-morpholinyl)-3-pyridinyl]sulfonyl]-5-(trifluoromethyl)-1H-indol-2-yl]methyl]benzoic acid] | 19% | 917 nM | 31% | 643 nM
14 | COc1ccc(S(=O)(=O)n2c(Cc3ccc(C(=O)O)cc3)cc3cc(Cl)ccc32)cn1 [Example 169, 4-[[5-chloro-1-[(6-methoxy-3-pyridinyl)sulfonyl]-1H-indol-2-yl]methyl]benzoic acid] | 28% | 2490 nM | 46% | 1010 nM
15 | CC(C)(C)c1cccc(S(=O)(=O)n2c(Cc3ccc(-c4nn[nH]n4)cc3)cc3cc(C(F)(F)F)ccc32)c1 [Example 221, 4-[1-[3-(1,1-dimethylethyl)phenyl]sulfonyl]-5-(trifluoromethyl)-1H-indol-2H-tetrazol-5-yl-benzyl] | 57% | 162 nM | 66% | 191 nM
16 | CC(C)(CO)c1cccc(S(=O)(=O)n2c(Cc3ccc(C(=O)O)cc3)cc3cc(C(F)(F)F)ccc32)c1 [Example 231, 4-[[1-[[3-(2-hydroxy-1,1-dimethylethyl)phenyl]sulfonyl]-5-(trifluoromethyl)-1H-indol-2-yl]methyl]benzoic acid] | 62% | 164 nM | 81% | 65 nM
17 | COC(=O)c1ccc(Cc2cc3cc(Cl)ccc3n2S(=O)(=O)c2ccc(C(C)C)cc2)cc1 [Example 40, 4-[[5-chloro-1-[[4-(1-methylethyl)phenyl]sulfonyl]-1H-indol-2-yl]methyl]benzoic acid, methyl ester] | 75% | 2110 nM | 96% | 560 nM
18 | O=C(O)c1ccc(Cc2cc3cc(C(F)(F)F)ccc3n2S(=O)(=O)c2ccc(F)cc2)cc1 [Example 137, 4-[[1-[4-fluoro-phenylsulfonyl]-5-(trifluoromethyl)-1H-indol-2-yl]methyl]benzoic acid] | 18% | 730 nM | 37% | 529 nM
19 | CN1CCOc2ccc(S(=O)(=O)n3c(Cc4ccc(F)c(C(=O)O)c4)cc4cc(C(F)(F)F)ccc43)cc21 [Example 212, 3-[[1-[[4-methyl-3,4-dihydro-2H-benzo[1,4]oxazin-6-yl]-sulfonyl]-5-trifluoromethyl-1H-indol-2-yl]methyl]-6-fluorobenzoic acid] | 81% | 40 nM | 80% | 19 nM
20 | O=C(O)c1ccc(Cc2cc3cc(Cl)ccc3n2S(=O)(=O)c2ccc(-c3cccc(F)c3)cc2)cc1 [Example 172, 4-[[1-[3′-fluoro-biphenyl-4-sulfonyl]-5-(chloro)-1H-indol-2-yl]methyl]benzoic acid] | 47% | 567 nM | 82% | 117 nM
